This note sets out measurements from patent publication US20230203043A1, “NOVEL IMIDAZOPYRAZINE DERIVATIVES” (Hoffmann-La Roche Inc., priority 2020, published 2023).

The IC90 is the concentration at which the effect reaches the 90% level.

Structures can show the parent of a compound that is named as a salt. Where two headings read alike, the source gives them in different places.

The assay concerns Acinetobacter baumannii ATCC17961. In words: Antimicrobial susceptibility testing: 90% growth inhibitory concentration (IC90) determination in Iso-Sensitest broth, OD600 growth. Particulars: Acinetobacter baumannii, ATCC17961, 16 h. Type of assay: cell-based. Summed up: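 Each strain, at about 5×10^(5) CFU/ml, was incubated with twofold dilutions of compound at 35±2° C for 16 h, and IC90 was calculated from kinetic optical density measured at 600 nm during logarithmic growth.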

The mark [1] stands for this setting: read-out: A. baumannii ATCC 17961 IC90 (uM), strain ATCC 17961, OD600 growth over 16 h.
Where [2] appears, read: strain ATCC 17961, OD600 growth over 16 h, read-out: A. baumannii ATCC 17961 IC90.

As for `Cn1nccc1Cn1cc(-c2cnc3c(Nc4ccc(C(=O)N5CCNCC5)c(Cl)c4)nccn23)c(C(F)(F)F)n1` [Example 181, [2-chloro-4-[[3-[1-[(2-methylpyrazol-3-yl)methyl]-3-(trifluoromethyl)pyrazol-4-yl]imidazo[1,2-a]pyrazin-8-yl]amino]phenyl]-piperazin-1-ylmethanone formate], the IC90 under setting [1] amounted to 0.293 µM. On the same count and under the same terms, as for `O=C(NCCCNC(=O)[C@@H]1C[C@@H](O)CN1)c1ccc(Nc2nccn3c(-c4c[nH]nc4C(F)(F)F)cnc23)cc1Cl` [Example 429, (2S,4R)-N-[3-[[2-chloro-4-[[3-[3-(trifluoromethyl)-1H-pyrazol-4-yl]imidazo[1,2-a]pyrazin-8-yl]amino]benzoyl]amino]propyl]-4-hydroxypyrrolidine-2-carboxamide formate], the figure is 1.07 µM; as for `CCc1cc(Nc2nccn3c(-c4cn(CC#N)nc4C(F)(F)F)cnc23)ccc1C(=O)N1CCC(O)(CNC)CC1` [Example 219, 2-[4-[8-[3-ethyl-4-[4-hydroxy-4-(methylaminomethyl)piperidine-1-carbonyl]anilino]imidazo[1,2-a]pyrazin-3-yl]-3-(trifluoromethyl)pyrazol-1-yl]acetonitrile formate], 0.599 µM. Turning to `CCc1cc(Nc2nccn3c(-c4cn(CC#N)nc4C(F)(F)F)cnc23)ccc1C(=O)NCCCNC(=O)[C@@H]1C[C@@H](O)CN1` [Example 754, (2S,4R)-N-(3-(4-((3-(1-(cyanomethyl)-3-(trifluoromethyl)-1H-pyrazol-4-yl)imidazo[1,2-a]pyrazin-8-yl)amino)-2-ethylbenzamido)propyl)-4-hydroxypyrrolidine-2-carboxamide], the 90% effect concentration (IC90) under setting [2] amounted to 0.671 µM.

Consider `N[C@@H]1CCN(C(=O)c2ccc(Nc3nccn4c(-c5c[nH]nc5C(F)(F)F)cnc34)cc2Cl)C1` [Example 324, [(3R)-3-aminopyrrolidin-1-yl]-[2-chloro-4-[[3-[3-(trifluoromethyl)-1H-pyrazol-4-yl]imidazo[1,2-a]pyrazin-8-yl]amino]phenyl]methanone], for which, under setting [2], the IC90 worked out at 1.23 µM. On to `O=C(c1ccc(Nc2nccn3c(-c4c[nH]nc4C(F)(F)F)cnc23)cc1Cl)N1CCN(C(=O)[C@H]2CNC[C@H](O)C2)CC1` (racemic) [Example 353, [2-chloro-4-[[3-[3-(trifluoromethyl)-1H-pyrazol-4-yl]imidazo[1,2-a]pyrazin-8-yl]amino]phenyl]-[4-[rac-(3R,5R)-5-hydroxypiperidine-3-carbonyl]piperazin-1-yl]methanone], for which the IC90 under setting [2] was found to be 0.241 µM.

`CCc1cc(Nc2nccn3c(-c4c[nH]nc4C(F)(F)F)cnc23)ccc1C(=O)NCCCNC(=O)[C@H]1CC[C@@H](N)C1` [Example 535, N-(3-((1S,3R)-3-aminocyclopentane-1-carboxamido)propyl)-2-ethyl-4-((3-(3-(trifluoromethyl)-1H-pyrazol-4-yl)imidazo[1,2-a]pyrazin-8-yl)amino)benzamide formate]: the IC90 under setting [1] stood at 0.247 µM. Take `Cc1cc(Nc2nccn3c(-c4c[nH]nc4C(F)(F)F)cnc23)ccc1C(=O)N1CCN(C(=O)[C@@H](C)N)CC1` [Example 334, (2R)-2-amino-1-[4-[2-methyl-4-[[3-[3-(trifluoromethyl)-1H-pyrazol-4-yl]imidazo[1,2-a]pyrazin-8-yl]amino]benzoyl]piperazin-1-yl]propan-1-one]: the IC90 under setting [2] was determined as 0.782 µM. On to `C[C@H](NC(=O)c1ccc(Nc2nccn3c(-c4c[nH]nc4C(F)(F)F)cnc23)cc1Cl)C(=O)N1CCC(N)CC1` [Example 126, N-[(2S)-1-(4-aminopiperidin-1-yl)-1-oxopropan-2-yl]-2-chloro-4-[[3-[3-(trifluoromethyl)-1H-pyrazol-4-yl]imidazo[1,2-a]pyrazin-8-yl]amino]benzamide formate], for which the IC90 under setting [1] was determined as 4.15 µM.

Regarding `Cc1cc(Nc2nccn3c(-c4cn(CC#N)nc4C(F)(F)F)cnc23)ccc1C(=O)N1CCN(C(=O)C2(O)CCNCC2)CC1` [Example 425, formic acid; 2-[4-[8-[4-[4-(4-hydroxypiperidine-4-carbonyl]piperazine-1-carbonyl]-3-methylanilino]imidazo[1,2-a]pyrazin-3-yl]-3-(trifluoromethyl)pyrazol-1-yl]acetonitrile], the IC90 under setting [1] was found to be 0.691 µM. In the case of `CCc1cc(Nc2nccn3c(-c4c[nH]nc4C(F)(F)F)cnc23)ccc1C(=O)NCCNC(=O)N1CC[C@H](N)C1` [Example 576, (S)-3-amino-N-(2-(2-ethyl-4-((3-(3-(trifluoromethyl)-1H-pyrazol-4-yl)imidazo[1,2-a]pyrazin-8-yl)amino)benzamido)ethyl) pyrrolidine-1-carboxamide formate], the IC90 under setting [2] was found to be 0.9 µM. As to `O=C(N[C@@H]1CNC[C@H]1O)N1CCN(C(=O)c2ccc(Nc3nccn4c(-c5c[nH]nc5C(F)(F)F)cnc34)cc2Cl)CC1` [Example 441, 4-[2-chloro-4-[[3-[3-(trifluoromethyl)-1H-pyrazol-4-yl]imidazo[1,2-a]pyrazin-8-yl]amino]benzoyl]-N-[(3R,4R)-4-hydroxypyrrolidin-3-yl]piperazine-1-carboxamide formate], the IC90 under setting [1] amounted to 0.617 µM. With `Cc1cc(Nc2nccn3c(-c4cn(CC#N)nc4C(F)(F)F)cnc23)ccc1C(=O)NCC(=O)N1CC[C@@H](N)C1` [Example 686, N-[2-[(3R)-3-aminopyrrolidin-1-yl]-2-oxo-ethyl]-4-[[3-[1-(cyanomethyl)-3-(trifluoromethyl)pyrazol-4-yl]imidazo[1,2-a]pyrazin-8-yl]amino]-2-methyl-benzamide], the concentration for an effect of 90% (IC90) under setting [2] turned out to be 0.343 µM. Still for that read-out and setting: the same measure for `Cc1cc(Nc2nccn3c(-c4cn(CC(F)F)nc4C(F)(F)F)cnc23)cc(F)c1C(=O)N[C@H](C)CNC(=O)[C@@H]1C[C@@H](O)CN1` [Example 744, (2S,4R)-N-((R)-2-(4-((3-(1-(2,2-difluoroethyl)-3-(trifluoromethyl)-1H-pyrazol-4-yl)imidazo[1,2-a]pyrazin-8-yl)amino)-2-fluoro-6-methylbenzamido)propyl)-4-hydroxypyrrolidine-2-carboxamide]: 0.557 µM.

Turning to `Cc1cc(Cn2cc(-c3cnc4c(Nc5ccc(C(=O)N6CCNCC6)c(Cl)c5)nccn34)c(C(F)(F)F)n2)n[nH]1` [Example 118, [2-chloro-4-[[3-[1-[(5-methyl-1H-pyrazol-3-yl)methyl]-3-(trifluoromethyl)pyrazol-4-yl]imidazo[1,2-a]pyrazin-8-yl]amino]phenyl]-piperazin-1-ylmethanone formate], the IC90 under setting [1] was found to be 0.343 µM. The same measure, in the same setting: the same measure for `O=C(N[C@@H]1CCNC1)N1CCN(C(=O)c2ccc(Nc3nccn4c(-c5c[nH]nc5C(F)(F)F)cnc34)cc2Cl)CC1` [Example 391, 4-[2-chloro-4-[[3-[3-(trifluoromethyl)-1H-pyrazol-4-yl]imidazo[1,2-a]pyrazin-8-yl]amino]benzoyl]-N-[(3R)-pyrrolidin-3-yl]piperazine-1-carboxamide formate]: 0.203 µM; for `O=C(CN1CCN(C(=O)c2ccc(Nc3nccn4c(-c5cn(CC(F)F)nc5C(F)(F)F)cnc34)cc2Cl)CC1)NC1CNC1` [Example 599, N-(azetidin-3-yl)-2-(4-(2-chloro-4-((3-(1-(2,2-difluoroethyl)-3-(trifluoromethyl)-1H-pyrazol-4-yl)imidazo[1,2-a]pyrazin-8-yl)amino)benzoyl)piperazin-1-yl)acetamide formate]: 0.522 µM.
